Measured values published in US20260256694A1, “Multilamellar Vesicle Drug Formulation” (Nanostar Pharmaceuticals Ltd., priority 2022, published 2026).

Assay: Pharmacokinetics after oral gavage in mice
Details: 10 mg/kg
Protocol: Concentrations of drugs and lipids were simultaneously quantified by a ACQUITY UPLC H-Class System (Waters, Milford, MA)^15. The mobile phase was composed of solvent A: 0.1% trifluoroacetic acid (TFA) in water and solvent B: 0.1% TFA in methanol. […] Concentrations of drugs and lipids were measured by integrating the peak area under the curve and compared to the standard curves. For plasma CQ quantitation, a Waters QDa mass spectrometry detector was used. Ionization was carried out at 250° C.
MLV-CQ drug formulation of the present invention or free CQ (dissolved in saline) was administered through oral gavage to mice at 10 mg CQ/kg (50 mg lipid/kg). […] Plasma was isolated by centrifugation at 4° C. for 10 min at 10,000 g. Forty-five L of plasma was mixed with 300 μL ethanol, vortexed for 30 s, placed on ice for 30 min, and centrifuged twice at 12,500 rpm for 5 min. The supernatant (280 μL) was collected, lyophilized, and reconstituted in 45 μL ethanol. Ten L of the sample was then injected into the UPLC to measure CQ concentration. Pharmacokinetics parameters and AUC were analyzed using PK solver^16 and GraphPad Prisim version 8.0 (GraphPad Software, San Diego, CA, USA), respectively.

## CCN(CC)CCCC(C)Nc1ccnc2cc(Cl)ccc12 (stereo not shown) [CQ solution, chloroquine diphosphate]
  CQ in plasma at 24 h: completely eliminated
